Assays:
[1] = system: Chenopodium album; assay: Upland soil treatment (Test Example 2); format: in vivo; conditions: soil surface treatment next day after sowing, wettable powder, 1 kg active ingredient per hectare, evaluated 21st day after application
Method in brief: (§1)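 Index rating at day 21 after a single pre-emergence soil-surface application, 1 kg a.i./ha, made the day after sowing in upland soil; for crops a lower index indicates higher safety.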

[2] = system: Digitaria adscendens; assay: Upland soil treatment (Test Example 2); format: in vivo; conditions: soil surface treatment next day after sowing, wettable powder, 1 kg active ingredient per hectare, evaluated 21st day after application
Method in brief: as §1

[3] = system: Stellaria media; assay: Upland soil treatment (Test Example 2); format: in vivo; conditions: soil surface treatment next day after sowing, wettable powder, 1 kg active ingredient per hectare, evaluated 21st day after application
Method in brief: as §1

[4] = system: Setaria viridis; assay: Upland soil treatment (Test Example 2); format: in vivo; conditions: soil surface treatment next day after sowing, wettable powder, 1 kg active ingredient per hectare, evaluated 21st day after application
Method in brief: as §1

[5] = system: Scirpus juncoides; assay: Paddy field treatment (Test Example 3); format: in vivo; conditions: paddy pot, submerged 4 cm, dropped on water surface 10th day after transplantation, 1 kg active ingredient per hectare, evaluated 21st day
Method in brief: (§2)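 Index scores for herbicidal effect were read 21 days after treatment, higher meaning stronger effect. Treatment was a water-diluted wettable powder dropped onto flooded paddy soil at 1 kg active ingredient per hectare, 10 days after rice transplantation.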

[6] = system: Ammannia multiflora; assay: Paddy field treatment (Test Example 3); format: in vivo; conditions: paddy pot, submerged 4 cm, dropped on water surface 10th day after transplantation, 1 kg active ingredient per hectare, evaluated 21st day
Method in brief: as §2

[7] = system: Monochoria vaginalis; assay: Paddy field treatment (Test Example 3); format: in vivo; conditions: paddy pot, submerged 4 cm, dropped on water surface 10th day after transplantation, 1 kg active ingredient per hectare, evaluated 21st day
Method in brief: as §2

[8] = system: Echinochloa spp.; assay: Paddy field treatment (Test Example 3); format: in vivo, Echinochloa crusgalli; conditions: paddy pot, submerged 4 cm, dropped on water surface 10th day after transplantation, 1 kg active ingredient per hectare, evaluated 21st day
Method in brief: as §2

[9] = system: rice (Oryza sative, variety: Koshihikari); assay: Paddy field treatment (Test Example 3), crop; format: in vivo, Oryza sativa; conditions: transplanted rice two-leaf period, water surface treatment 10th day after transplantation, 1 kg active ingredient per hectare, evaluated 21st day, lower index = higher safety
Method in brief: as §2

[10] = system: Chenopodium album; assay: Upland field foliage treatment (Test Example 1); format: in vivo; conditions: foliage treatment 14th day after sowing, wettable powder, 1 kg active ingredient per hectare, evaluated 21st day after application
Method in brief: (§3)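 Foliage application took place two weeks after sowing, at an active-ingredient rate of 1 kg/ha from a water-diluted wettable powder. Rating followed on the 21st day after application, using an index scale on which crop values rise as injury increases.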

[11] = system: Digitaria adscendens; assay: Upland field foliage treatment (Test Example 1); format: in vivo; conditions: foliage treatment 14th day after sowing, wettable powder, 1 kg active ingredient per hectare, evaluated 21st day after application
Method in brief: as §3

[12] = system: Stellaria media; assay: Upland field foliage treatment (Test Example 1); format: in vivo; conditions: foliage treatment 14th day after sowing, wettable powder, 1 kg active ingredient per hectare, evaluated 21st day after application
Method in brief: as §3

[13] = system: Setaria viridis; assay: Upland field foliage treatment (Test Example 1); format: in vivo; conditions: foliage treatment 14th day after sowing, wettable powder, 1 kg active ingredient per hectare, evaluated 21st day after application
Method in brief: as §3

[14] = system: soybean (Glycine max); assay: Upland soil treatment (Test Example 2), crop; format: in vivo; conditions: soil surface treatment next day after sowing, 1 kg active ingredient per hectare, evaluated 21st day, lower index = higher safety
Method in brief: as §1

[15] = system: wheat (Triticum aestivum); assay: Upland soil treatment (Test Example 2), crop; format: in vivo; conditions: soil surface treatment next day after sowing, 1 kg active ingredient per hectare, evaluated 21st day, lower index = higher safety
Method in brief: as §1

[16] = system: soybean (Glycine max); assay: Upland field foliage treatment (Test Example 1), crop; format: in vivo; conditions: foliage treatment 14th day after sowing, 1 kg active ingredient per hectare, evaluated 21st day, lower index = higher safety
Method in brief: as §3

[17] = system: wheat (Triticum aestivum); assay: as above; format: in vivo; conditions: foliage treatment 14th day after sowing, 1 kg active ingredient per hectare, evaluated 21st day, lower index = higher safety
Method in brief: as §3

Row | Structure (SMILES) | Herbicidal activity Chenopodium album [1] | Herbicidal activity Digitaria adscendens [2] | Herbicidal activity Stellaria media [3] | Herbicidal activity Setaria viridis [4] | Herbicidal activity Scirpus juncoides [5] | Herbicidal activity Ammannia multiflora [6] | Herbicidal activity Monochoria vaginalis [7] | Herbicidal activity Echinochloa spp. [8] | Herbicidal activity Oryza sativa [9] | Herbicidal activity Chenopodium album [10] | Herbicidal activity Digitaria adscendens [11] | Herbicidal activity Stellaria media [12] | Herbicidal activity Setaria viridis [13] | Herbicidal activity Glycine max [14] | Herbicidal activity Triticum aestivum [15] | Herbicidal activity Glycine max [16] | Herbicidal activity Triticum aestivum [17]
1 | COC=C(Cn1nc(-c2ccccc2Cl)c(Br)c1C)C(=O)OC [Compound 27] | 4 (herbicidal effect of not less than 70% by weight and less than 90% by weight) | 5 (herbicidal effect of not less than 90% by weight) | 5 (herbicidal effect of not less than 90% by weight) | 4 (herbicidal effect of not less than 70% by weight and less than 90% by weight) | 5 (herbicidal effect of not less than 90% by weight) | 5 (herbicidal effect of not less than 90% by weight) | 5 (herbicidal effect of not less than 90% by weight) | 5 (herbicidal effect of not less than 90% by weight) | 1 (herbicidal effect of not less than 10% by weight and less than 30% by weight) | 5 (herbicidal effect of not less than 90% by weight) | 5 (herbicidal effect of not less than 90% by weight) | 5 (herbicidal effect of not less than 90% by weight) | 4 (herbicidal effect of not less than 70% by weight and less than 90% by weight) | 0 (herbicidal effect of not less than 0% by weight and less than 10% by weight) | 0 (herbicidal effect of not less than 0% by weight and less than 10% by weight) | 0 (herbicidal effect of not less than 0% by weight and less than 10% by weight) | 0 (herbicidal effect of not less than 0% by weight and less than 10% by weight)
2 | COC=C(Cn1nc(-c2cc(C)ccc2C)c(Br)c1C)C(=O)OC [Compound 28] | 4 (herbicidal effect of not less than 70% by weight and less than 90% by weight) | 4 (herbicidal effect of not less than 70% by weight and less than 90% by weight) | 4 (herbicidal effect of not less than 70% by weight and less than 90% by weight) | 4 (herbicidal effect of not less than 70% by weight and less than 90% by weight) | 5 (herbicidal effect of not less than 90% by weight) | 5 (herbicidal effect of not less than 90% by weight) | 5 (herbicidal effect of not less than 90% by weight) | 5 (herbicidal effect of not less than 90% by weight) | 1 (herbicidal effect of not less than 10% by weight and less than 30% by weight) | 5 (herbicidal effect of not less than 90% by weight) | 4 (herbicidal effect of not less than 70% by weight and less than 90% by weight) | 5 (herbicidal effect of not less than 90% by weight) | 4 (herbicidal effect of not less than 70% by weight and less than 90% by weight) | 0 (herbicidal effect of not less than 0% by weight and less than 10% by weight) | 0 (herbicidal effect of not less than 0% by weight and less than 10% by weight) | 0 (herbicidal effect of not less than 0% by weight and less than 10% by weight) | 0 (herbicidal effect of not less than 0% by weight and less than 10% by weight)
3 | COC=C(Cn1nc(-c2cccc(Cl)c2Cl)c(Br)c1C)C(=O)OC [Compound 29] | 4 (herbicidal effect of not less than 70% by weight and less than 90% by weight) | 4 (herbicidal effect of not less than 70% by weight and less than 90% by weight) | 4 (herbicidal effect of not less than 70% by weight and less than 90% by weight) | 4 (herbicidal effect of not less than 70% by weight and less than 90% by weight) | 4 (herbicidal effect of not less than 70% by weight and less than 90% by weight) | 5 (herbicidal effect of not less than 90% by weight) | 5 (herbicidal effect of not less than 90% by weight) | 4 (herbicidal effect of not less than 70% by weight and less than 90% by weight) | 0 (herbicidal effect of not less than 0% by weight and less than 10% by weight) | 5 (herbicidal effect of not less than 90% by weight) | 5 (herbicidal effect of not less than 90% by weight) | 5 (herbicidal effect of not less than 90% by weight) | 4 (herbicidal effect of not less than 70% by weight and less than 90% by weight) | 0 (herbicidal effect of not less than 0% by weight and less than 10% by weight) | 0 (herbicidal effect of not less than 0% by weight and less than 10% by weight) | 1 (herbicidal effect of not less than 10% by weight and less than 30% by weight) | 1 (herbicidal effect of not less than 10% by weight and less than 30% by weight)
4 | COC=C(Cn1nc(-c2ccc(Cl)cc2Cl)c(Br)c1C)C(=O)OC [Compound 30] | 4 (herbicidal effect of not less than 70% by weight and less than 90% by weight) | 5 (herbicidal effect of not less than 90% by weight) | 4 (herbicidal effect of not less than 70% by weight and less than 90% by weight) | 5 (herbicidal effect of not less than 90% by weight) | 4 (herbicidal effect of not less than 70% by weight and less than 90% by weight) | 5 (herbicidal effect of not less than 90% by weight) | 5 (herbicidal effect of not less than 90% by weight) | 4 (herbicidal effect of not less than 70% by weight and less than 90% by weight) | 0 (herbicidal effect of not less than 0% by weight and less than 10% by weight) | 5 (herbicidal effect of not less than 90% by weight) | 5 (herbicidal effect of not less than 90% by weight) | 5 (herbicidal effect of not less than 90% by weight) | 4 (herbicidal effect of not less than 70% by weight and less than 90% by weight) | 0 (herbicidal effect of not less than 0% by weight and less than 10% by weight) | 0 (herbicidal effect of not less than 0% by weight and less than 10% by weight) | 1 (herbicidal effect of not less than 10% by weight and less than 30% by weight) | 0 (herbicidal effect of not less than 0% by weight and less than 10% by weight)
5 | COC=C(Cn1nc(-c2cc(Cl)ccc2Cl)c(Br)c1C)C(=O)OC [Compound 31] | 5 (herbicidal effect of not less than 90% by weight) | 5 (herbicidal effect of not less than 90% by weight) | 5 (herbicidal effect of not less than 90% by weight) | 5 (herbicidal effect of not less than 90% by weight) | 5 (herbicidal effect of not less than 90% by weight) | 5 (herbicidal effect of not less than 90% by weight) | 5 (herbicidal effect of not less than 90% by weight) | 5 (herbicidal effect of not less than 90% by weight) | 1 (herbicidal effect of not less than 10% by weight and less than 30% by weight) | 5 (herbicidal effect of not less than 90% by weight) | 5 (herbicidal effect of not less than 90% by weight) | 5 (herbicidal effect of not less than 90% by weight) | 5 (herbicidal effect of not less than 90% by weight) | 0 (herbicidal effect of not less than 0% by weight and less than 10% by weight) | 0 (herbicidal effect of not less than 0% by weight and less than 10% by weight) | 1 (herbicidal effect of not less than 10% by weight and less than 30% by weight) | 1 (herbicidal effect of not less than 10% by weight and less than 30% by weight)

Reference: patent US6809065B2, “Herbicide containing substituted pyrazole derivative as active ingredient” (SDS Biotech K.K., priority 2001, dated 2004)
